We go through 4 compounds from US5688913A, “CS-1 peptidomimetics, compositions and methods of using the same” (Cytel Corporation, priority 1995, dated 1997).

Read-outs that look alike come from different tables or passages of the source. Square brackets hold non-standard residues; d marks the D form. Peptide text beside a SMILES is read from it. * marks the point of attachment. NHOctadecyl = CCCCCCCCCCCCCCCCCCN*; PhAc = O=C(Cc1ccccc1)*; Ahx = NCCCCCC(=O)O

Data set [1] deals with SJL/J mice. In words: Experimental autoimmune encephalomyelitis in mice. In kind it is in vivo. Particulars: 1 mg/mouse intraperitoneally at days 8 and 9; versus scrambled control peptide; FIG. 6. An excerpt: Experimental autoimmune encephalomyelitis (EAE) is a demyelinating disease of the central nervous system that can be induced in susceptible strains of mice and rats by immunization with myelin basic protein, proteolipid protein (PLP), or their immunodominant T cell determinants, or by injection of CD4-positive T cell clones specific for those determinants. EAE serves as an animal model of human multiple sclerosis. In both diseases, circulating leukocytes such as T cells and monocytes penetrate the blood/brain barrier and damage myelin, resulting in paralysis.
EAE was induced in female SJL/J mice (8 to 14 weeks old) by immunization on day zero with 50 μg of a peptide corresponding to positions 139-151 of PLP emulsified in a 1:1 mixture of PBS and complete Freund's adjuvant (CFA). […]
Mice were observed daily, beginning at day 8 for clinical signs of EAE, and disease was scored on a scale of 0-5 as: 0=no disease; 1=floppy tail; 2=moderate hind limb weakness; 3=paraparesis; 4=paraplegis with moderate forelimb weakness; 5=qualdriplegis or premoribund state. […]
Summed or averaged scores for clinical signs were plotted vs. time. The area under the resulting curves was calculated between day 8 and day 35 to calculate percentage inhibition of EAE by an inhibitor peptide. The percent inhibition was calculated as follows: […]

Data set [2] addresses VLA-4 (Homo sapiens, UniProt P05556+P13612). Description: cell-based. Set-up: host or cells: Jurkat (human T lymphoblastic line). It is filed as cell-based. In short, it runs like this:
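51Cr-labelled Jurkat cells (human T lymphoblastic) were preincubated 30 min at about 22 °C with peptide, then allowed to bind 30 min at 37 °C to wells coated with CS-1 peptide or CS-1-OVA. After washing, bound cells were lysed with SDS and counted. IC50 is the peptide concentration halving binding, normalized to plate controls.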

Data set [3] concerns BALB/c mice. Description: Delayed type hypersensitivity in mice (adoptive transfer, oxazolone). In kind it is in vivo, mouse. Particulars: 6 mg/kg/day subcutaneously by implanted pump for 24 hours; FIG. 5. How it is done: An adoptive transfer delayed-type hypersensitivity murine model has been developed using splenic T cells primed to oxazolone. This model is described in Elices et al., Clin. Exp. Rheum., 11(Suppl. 8):577-580 (1993), whose procedures were followed here.
Thus, BALB/c mice were shaved on the belly and painted (50 μl on the belly and 5 μl on each paw) with three percent oxazolone in acetone/olive oil (4:1) at days zero and 1. At day 5, the mice were sacrificed, their spleens removed, and splenic T cells were obtained via nylon wool columns.
Normal saline or saline containing 25×10^6 /animal of the oxazolone-immune T cells were separately injected into naive mice. The mice were then challenged by painting 10 μl of 2 percent oxazolone onto one ear each. All procedures were carried out under sterile conditions and in endotoxing-free buffers.
Prior to challenge or saline injection, the mice were implanted with pumps that subcutaneously administered normal saline, normal saline containing the peptide N-phenylacetyl-Leu-Asp-Phe-D-Pro-NH2 or normal saline containing a peptide with a scrambled sequence continually at 6 mg/kg/day for a 24-hour time period. The swelling diameter at the site of challenge or saline injection was measured with a microcaliper 24 hours thereafter.

Data set [4] can be described thus: Retention of potency in PBS containing 10 percent serum. Particulars: PBS at 7.2-7.4 containing 10 percent mouse or human serum.
Data set [5] can be described thus: Toxicity study at 600 mg/kg/day. In kind it is in vivo. An excerpt: The results of this study are shown in the graph of FIG. 5 for the saline and recited inhibitor peptide treatments.
Data set [6] deals with New Zealand white rabbit. Description: Rabbit cardiac allograft model. It is filed as in vivo. Particulars: 1 mg/kg/day injections, day 7. How it is done:
New Zealand white rabbit SPF hearts were allografted into the necks of similar rabbits to assay a graft-vs-host immunorejection model and the affect of a contemplated peptide on that immunoinflammatory response. These studies were carried out by Dr. M. Rabinovitch of the Hospital for Sick Children, Toronto, Ontario, Canada.
Here, two rabbits were injected on day zero with 1 mg/kg/day of the inhibitor peptide N-phenylacetyl-Leu-Asp-Phe-D-Pro-NH2 in aqueous diluent. The two rabbits then each received a grafted heart, with the graft being made in the carotid artery to the aorta of the grafted heart, and the jugular vein to the pulmonary artery of the grafted heart. The rabbits thereafter received daily injections of the same dose of that peptide, and were sacrificed on day 7. Another animal that received normal saline injections in place of the peptide injections, also received a similarly allografted heart, and was similarly sacrificed at day 7.
The animals' blood vessels were thereafter examined histologically for evidence of arteriopathy, and particularly thickening of the intimal elastic lamina (IEL) layer of the coronary arteries. Thickening of the IEL is caused at least in part by emigration of effector cells bearing the CD2 marker such as T cells and NK cells. Clausell et al., Am. J. Path., 142(6):1772-1786 (1993). […]

For data set [7], the system named is Jurkat T cell line. In words: Jurkat cell binding to frozen human RA synovial sections. In kind it is cell-based. Particulars: 10-mer at 500 μg/ml; inhibitor peptide at its IC50 value. On the procedure:
Binding studies were carried out using the Jurkat T cell line and frozen RA synovial sections. […] Stimulated MOLT-4 cells behaved similarly.

For data set [8] the following is noted: Elices et al. 1993; by proteolytic degradation; cited from earlier work.
The subject of data set [9] is murine contact hypersensitivity. Particulars: cited from earlier work.
Data set [10] can be described thus: Water solubility. It is filed as physicochemical.
[11] abbreviates: normalized IC50 relative to standard peptide of SEQ ID NO:3 (=1), about one-tenth or less of the standard is assigned zero.

VLA-4, sequence (P13612 34-1032): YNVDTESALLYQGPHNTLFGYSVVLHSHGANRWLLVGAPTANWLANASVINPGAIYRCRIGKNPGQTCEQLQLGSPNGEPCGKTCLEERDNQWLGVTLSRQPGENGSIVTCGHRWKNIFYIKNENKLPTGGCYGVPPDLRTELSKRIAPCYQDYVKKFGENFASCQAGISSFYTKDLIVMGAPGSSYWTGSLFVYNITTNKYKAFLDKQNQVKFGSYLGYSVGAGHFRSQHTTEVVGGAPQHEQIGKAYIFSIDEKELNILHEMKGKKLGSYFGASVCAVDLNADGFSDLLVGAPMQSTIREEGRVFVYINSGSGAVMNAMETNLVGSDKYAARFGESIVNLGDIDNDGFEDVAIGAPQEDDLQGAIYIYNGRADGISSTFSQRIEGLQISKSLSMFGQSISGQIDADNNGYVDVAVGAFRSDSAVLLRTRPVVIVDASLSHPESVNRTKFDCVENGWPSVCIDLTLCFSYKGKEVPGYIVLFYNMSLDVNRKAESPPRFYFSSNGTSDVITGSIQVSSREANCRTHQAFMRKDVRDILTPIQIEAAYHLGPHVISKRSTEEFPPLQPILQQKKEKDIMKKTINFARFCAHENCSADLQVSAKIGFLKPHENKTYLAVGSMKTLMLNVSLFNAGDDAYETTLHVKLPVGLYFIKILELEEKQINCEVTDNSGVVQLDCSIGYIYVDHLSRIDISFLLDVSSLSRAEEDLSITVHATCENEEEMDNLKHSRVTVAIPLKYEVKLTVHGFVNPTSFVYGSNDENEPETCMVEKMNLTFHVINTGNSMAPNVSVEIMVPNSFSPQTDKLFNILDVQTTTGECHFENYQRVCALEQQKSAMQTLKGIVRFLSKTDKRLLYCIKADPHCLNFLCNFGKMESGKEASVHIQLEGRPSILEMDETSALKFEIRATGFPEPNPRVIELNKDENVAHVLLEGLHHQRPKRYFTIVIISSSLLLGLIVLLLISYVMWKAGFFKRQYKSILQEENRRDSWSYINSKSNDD
VLA-4, sequence (P05556 21-798): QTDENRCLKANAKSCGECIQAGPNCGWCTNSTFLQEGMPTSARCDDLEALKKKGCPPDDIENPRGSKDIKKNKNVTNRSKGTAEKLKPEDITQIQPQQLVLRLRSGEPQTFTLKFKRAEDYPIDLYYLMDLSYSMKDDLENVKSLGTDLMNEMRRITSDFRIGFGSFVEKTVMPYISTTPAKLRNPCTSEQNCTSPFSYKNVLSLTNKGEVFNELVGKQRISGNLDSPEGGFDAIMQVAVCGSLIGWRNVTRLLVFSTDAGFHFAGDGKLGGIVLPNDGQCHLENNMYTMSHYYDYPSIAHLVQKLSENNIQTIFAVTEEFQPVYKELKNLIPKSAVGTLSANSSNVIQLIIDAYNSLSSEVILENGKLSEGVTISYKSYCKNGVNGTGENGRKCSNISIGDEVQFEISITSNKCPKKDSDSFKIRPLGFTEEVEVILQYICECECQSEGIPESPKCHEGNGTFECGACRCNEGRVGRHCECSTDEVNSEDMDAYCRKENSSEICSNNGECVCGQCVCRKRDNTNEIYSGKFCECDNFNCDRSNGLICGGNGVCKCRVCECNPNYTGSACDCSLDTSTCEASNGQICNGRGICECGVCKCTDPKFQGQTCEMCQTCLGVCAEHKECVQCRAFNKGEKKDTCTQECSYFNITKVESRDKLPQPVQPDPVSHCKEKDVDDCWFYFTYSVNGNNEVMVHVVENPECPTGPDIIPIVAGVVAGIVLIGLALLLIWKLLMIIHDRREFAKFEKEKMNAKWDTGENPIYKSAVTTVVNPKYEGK

On to `CC(C)C[C@H](NC(=O)Cc1ccccc1)C(=O)N[C@@H](CC(=O)O)C(=O)N[C@@H](Cc1ccccc1)C(=O)N1CCC[C@@H]1C(N)=O` [X L D F p phenylacetyl amide, N-phenylacetyl-Leu-Asp-Phe-D-Pro-NH2] (PhAc-LDF[dP]-NH2), for which, in data set [1], the “clinical signs of EAE” value is “marked improvement in clinical signs”. For the same compound, in data set [2], the IC50 (as a rule, the concentration that gives 50% inhibition) is about 500 nM and the “binding inhibition better than the standard 10-mer peptide of SEQ ID NO:3” value is on record as “about 312 times”. In [2] (setting [11]), the “RELATIVE POTENCY (relative peptide inhibition of VLA-4 binding CS-1)” value amounted to 313. For the same compound, the “reduction of inflammation (ear swelling diameter at challenge site)” value in data set [3] is reported as “reduced this type of CS-1/VLA-4-mediated immunoinflammation”. In [4], the “loss of potency after 24 hours” value is reported as “no loss of potency”. Further, the toxicity entry in [5] is reported as “no toxicity”. For the same compound, the “percentage of IEL thickening based on total coronary vessel area (lesion severity)” value in data set [6] (59 vessels of two rabbits, saline 35, basal about 15) was “about 18%”. For the same compound, the “vessels exhibiting IEL thickening” value in [6] (141 vessels of two rabbits, saline about 80, basal about 20) was “about 30%”.
Take `CC[C@H](C)[C@H](NC(=O)[C@H](CCC(=O)O)NC(=O)[C@@H]1CCCN1C(=O)CN)C(=O)N[C@@H](CC(C)C)C(=O)N[C@@H](CC(=O)O)C(=O)N[C@H](C(=O)N1CCC[C@H]1C(=O)N[C@@H](CO)C(=O)N[C@H](C(=O)O)[C@@H](C)O)C(C)C` [G P E I L D V P S T free amine free acid, GPEILDVPST, reference compound] (H-GPEILDVPST-OH): the “inhibition of Jurkat cell adhesion to RA synovial sections” value in [7] is on record as “could be inhibited”. The “RELATIVE POTENCY (relative peptide inhibition of VLA-4 binding CS-1)” value in data set [2] is on record as 1.
Regarding `CC[C@H](C)[C@H](NC(=O)[C@H](CCC(=O)O)NC(=O)[C@@H]1CCCN1C(=O)CNC(=O)[C@H](Cc1c[nH]cn1)NC(=O)[C@H](CC(C)C)NC(=O)[C@H](CC(N)=O)NC(=O)[C@@H]1CCCN1C(=O)[C@H](Cc1c[nH]cn1)NC(=O)[C@@H]1CCCN1C(=O)[C@H](CC(C)C)NC(=O)[C@@H](NC(=O)[C@@H](NC(=O)[C@H](CC(C)C)NC(=O)[C@H](CCC(N)=O)NC(=O)[C@@H]1CCCN1C(=O)[C@H](CC(C)C)NC(=O)[C@H](CCC(=O)O)NC(=O)[C@@H](N)CC(=O)O)C(C)C)[C@@H](C)O)C(=O)N[C@@H](CC(C)C)C(=O)N[C@@H](CC(=O)O)C(=O)N[C@H](C(=O)N1CCC[C@H]1C(=O)N[C@@H](CO)C(=O)N[C@H](C(=O)O)[C@@H](C)O)C(C)C` [CS-1 peptide] (H-DELPQLVTLPHPNLHGPEILDVPST-OH), the “clearance from blood circulation” value in [8] is reported as “rapidly cleared”. In [9] (Elices et al. 1993), the “inhibition of contact hypersensitivity” value was “unable to reproduce inhibition”. Also, the “inhibition of recruitment of T lymphocytes to skin inflammatory sites” value in [9] (Ferguson et al. 1991) is on record as “partially inhibited”.
As for `CCCCCCCCCCCCCCCCCCNC(=O)CCCCCNC(=O)[C@@H]1CCCN1C(=O)[C@H](Cc1ccccc1)NC(=O)[C@H](CC(=O)O)NC(=O)[C@H](CC(C)C)NC(=O)Cc1ccccc1` [phenylacetyl-Leu-Asp-Phe-Pro-NH(CH2)5 C(O)NHC18 H37] (PhAc-LDFP[Ahx]-NHOctadecyl), in [2] (setting [11]), the “RELATIVE POTENCY (relative peptide inhibition of VLA-4 binding CS-1)” value stood at 1. The water solubility entry in [10] is “not water-soluble”.
